Like-named read-outs stand apart in the source and are kept apart here.
What was measured:
[1] = target: GLP1R (Homo sapiens, UniProt P43220); assay: In vitro cellular cAMP expression activity assay (CRE-luciferase reporter); type: cell-based; conditions: HEK293/CRE-Luc/GLP1R cells, 6 h incubation, luciferase luminescence; read-out: HEK293/CRE-Luc/GLP-1R EC50
Method: HEK293/CRE-Luc/GLP1R cells (manufacturer: GenScript Biotech Corporation) in a good growth state were taken, washed with PBS, and digested with pancreatin. The digestion was terminated with a complete medium. The cells were collected into a centrifuge tube, adjusted to a cell density of 4×10^5 cells/mL using a DMEM+2% FBS medium, seeded in a 96-well plate (100 μL/well), and incubated at 37° C. for 1 h. After 1 h, the compounds were added using a nanoliter pipettor such that the final concentrations of the compounds were 10 nM-0.0006 nM. The compounds were added in duplicate, and a control was set. After the cells were incubated in a cell incubator for another 6 h, a detection reagent Luciferase (manufacturer: Vazyme Biotech, 50 μL/well) was added. The plate was left to stand at room temperature for 3 min to fully lyse the cells, and the luminescence was detected on a PerkinElmer Envision microplate reader. A dose-response curve was fitted by four-parameter analysis, and the EC50 was calculated.

[2] = In vitro stability assay in liver microsome (HLM); type: in vitro ADME, human; conditions: liver microsome 0.5 mg/mL, NADPH+MgCl2, PBS pH 7.4, 1 h
Method: (§1) Liver microsome incubation samples were prepared by mixing a PBS buffer (pH 7.4), a liver microsome solution (0.5 mg/mL), a test compound, and an NADPH+MgCl2 solution, and incubated at […] and 300 rpm for 1 h. Zero-hour samples were prepared by mixing a PBS buffer (pH 7.4), a liver microsome solution (0.5 mg/mL), and a test compound. An acetonitrile solution containing an internal standard was added to the samples, and supernatants were prepared by protein precipitation, diluted, and then assayed by LC/MS/MS.

[3] = In vitro stability assay in liver microsome (MLM); type: in vitro ADME, mouse; conditions: liver microsome 0.5 mg/mL, NADPH+MgCl2, PBS pH 7.4, 1 h
Method: as §1

[4] = In vivo pharmacokinetic evaluation in mice; conditions: mouse, plasma, ICR mice; for bioavailability: ig 3 mg/kg vs iv 0.5 mg/kg, read-out: Absolute bioavailability F; for MRT last: read-out: MRT(0-24); for half-life: read-out: t½ (converted); for AUC(0-t): read-out: AUC(0-24)
Method: ICR mice of 18-22 g were randomized into 4 groups of 9 mice after 3-5 days of acclimatization. […]
The test animals (ICR mice) were fasted from 12 h pre-dose to 4 h post-dose, and given free access to water throughout the study.
Orbital blood samples of about 0.1 mL were collected at 15 min, 30 min, 1 h, 2 h, 3 h, 4 h, 6 h, 8 h, 10 h, and 24 h post-dose for the intragastric administration, and at 5 min, 10 min, 30 min, 1 h, 2 h, 4 h, 6 h, 8 h, 10 h, and 24 h post-dose for the intravenous administration. The blood sampling was performed at 3-4 time points for each mouse, 3 mice per time point. The collected whole blood was transferred into EDTA-K2-containing centrifuge tubes and stored at 4° C., and, within 1 h, centrifuged at 4° C. at 4000 rpm for 10 min to separate the plasma. All the plasma samples were immediately stored after collection at −20° C. for testing.
30 μL of the plasma sample to be tested and a standard curve sample were pipetted and added with 300 μL of an acetonitrile solution containing an internal standard (20 ng/mL of diazepam). The mixture was shaken to mix well for 5 min, and centrifuged at 13,000 rpm for 10 min. 80 μL of the supernatant was taken and diluted with 80 μL of ultrapure water. After a thorough mixing, 2 μL of the resulting sample was taken for liquid chromatography-mass spectrometry, and the chromatogram was recorded.

Chain of GLP1R (P43220 24-463): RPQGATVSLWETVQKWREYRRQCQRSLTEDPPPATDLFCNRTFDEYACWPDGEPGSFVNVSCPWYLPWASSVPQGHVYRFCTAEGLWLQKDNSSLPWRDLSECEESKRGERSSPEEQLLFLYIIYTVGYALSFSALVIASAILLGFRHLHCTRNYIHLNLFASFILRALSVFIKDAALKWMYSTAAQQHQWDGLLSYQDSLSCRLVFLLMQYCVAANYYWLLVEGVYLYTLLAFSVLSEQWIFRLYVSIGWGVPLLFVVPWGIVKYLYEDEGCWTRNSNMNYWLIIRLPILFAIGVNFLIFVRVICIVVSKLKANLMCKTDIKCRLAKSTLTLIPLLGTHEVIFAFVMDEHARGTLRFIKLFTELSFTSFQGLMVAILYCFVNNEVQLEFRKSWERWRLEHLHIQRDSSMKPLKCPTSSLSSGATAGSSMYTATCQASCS

Compound | EC50 [1] [nM] | HLM Remaining (T = 60 min) [2] [%] | MLM Remaining (T = 60 min) [3] [%] | other results
COCC#Cc1ccc(-n2ccn(-c3c4c(nn3-c3cc(C)c(F)c(C)c3)CCN(C(=O)c3cc5cc([C@H]6CCOC(C)(C)C6)ccc5n3[C@@]3(c5noc(=O)[nH]5)C[C@@H]3C)[C@H]4C)c2=O)c(F)c1 [Compound 10-A] | < 0.5 |  |  | 
Cc1cc(-n2nc3c(c2-n2ccn(-c4ccc5c(c4)CC4(COC4)C5)c2=O)[C@H](C)N(C(=O)c2cc4cc([C@H]5CCOC(C)(C)C5)ccc4n2[C@@]2(c4noc(=O)[nH]4)C[C@@H]2C)CC3)cc(C)c1F [Compound 12-A] | < 0.5 |  |  | 
[2H]C([2H])([2H])N1C(=O)C2(CC2)c2ccc(-n3ccn(-c4c5c(nn4-c4cc(C)c(F)c(C)c4)CCN(C(=O)c4cc6cc([C@H]7CCOC(C)(C)C7)ccc6n4[C@@]4(c6noc(=O)[nH]6)C[C@@H]4C)[C@H]5C)c3=O)cc21 [Compound 13] | < 0.5 | 84.57 | 84.44 | 
Cc1cc(-n2nc3c(c2-n2ccn(-c4cc(F)c5c(c4)N(C)C(=O)C54CC4)c2=O)[C@H](C)N(C(=O)c2cc4cc([C@H]5CCOC(C)(C)C5)ccc4n2[C@@]2(c4noc(=O)[nH]4)C[C@@H]2C)CC3)cc(C)c1F [Compound 16] | < 0.5 |  |  | 
Cc1cc(-n2nc3c(c2-n2ccn(-c4ccc5c(c4)N(C4CC4)C(=O)C54CC4)c2=O)[C@H](C)N(C(=O)c2cc4cc([C@H]5CCOC(C)(C)C5)ccc4n2[C@@]2(c4noc(=O)[nH]4)C[C@@H]2C)CC3)cc(C)c1F [Compound 17] | < 0.5 |  |  | 
C[C@H]1c2c(nn(-c3ccc(F)c(C4CC4)c3)c2-n2ccn(-c3ccc4c(c3)N(C)C(=O)C43CC3)c2=O)CCN1C(=O)c1cc2cc([C@H]3CCOC(C)(C)C3)ccc2n1[C@@]1(c2noc(=O)[nH]2)C[C@@H]1C [Compound 18] | < 0.5 | 89.14 | 91.41 | bioavailability ([4]; po): 33.5%; MRT last ([4]; po, ig, dose 3 mg/kg): 8.36 h; half-life ([4]; po, ig, dose 3 mg/kg): 4.29 h; MRT last ([4]; iv, dose 0.5 mg/kg): 5.48 h; half-life ([4]; iv, dose 0.5 mg/kg): 4.55 h; AUC(0-inf) ([4]; po, ig, dose 3 mg/kg): 6030 ng·h/mL; AUC(0-t) ([4]; po, ig, dose 3 mg/kg): 5840 ng·h/mL; AUC(0-inf) ([4]; iv, dose 0.5 mg/kg): 3000 ng·h/mL; AUC(0-t) ([4]; iv, dose 0.5 mg/kg): 2930 ng·h/mL
Cc1cc(-n2nc3c(c2-n2ccn(-c4ccc5c(c4)N(C)C(=O)C54CC4)c2=O)[C@H](C)N(C(=O)c2cc4cc([C@H]5CCOC(C)(C)C5)ccc4n2C2(c4noc(=O)[nH]4)CC2)CC3)cc(C)c1F [Compound 19] | < 0.5 | 92.40 | 77.17 | 
C[C@H]1c2c(nn(-c3ccc(F)c(C4CC4)c3)c2-n2ccn(-c3ccc4c(c3)C3(CC3)C(=O)N4C)c2=O)CCN1C(=O)c1cc2cc([C@H]3CCOC(C)(C)C3)ccn2c1[C@@]1(c2noc(=O)[nH]2)C[C@@H]1C [Compound 24] | < 0.5 |  |  | 
C[C@H]1c2c(nn(-c3ccc(F)c(C4CC4)c3)c2-n2ccn(-c3ccc4c(c3)CC3(CC3)C4=O)c2=O)CCN1C(=O)c1cc2cc([C@H]3CCOC(C)(C)C3)ccc2n1[C@@]1(c2noc(=O)[nH]2)C[C@@H]1C [Compound 26] | < 0.5 |  |  | 

Now from value to compound, other results behind:

EC50 [1] [nM] | HLM Remaining (T = 60 min) [2] [%] | MLM Remaining (T = 60 min) [3] [%] | Compound | other results
< 0.5 |  |  | C[C@H]1c2c(nn(-c3ccc(F)c(C4CC4)c3)c2-n2ccn(-c3ccc4c(c3)C3(CC3)C(=O)N4C)c2=O)CCN1C(=O)c1cc2cc(C3CCOC(C)(C)C3)ccc2n1[C@@]1(c2nc(=O)o[nH]2)C[C@@H]1C (single isomer, unassigned) [Compound 6] | 
< 0.5 | 95.39 | 77.59 | C[C@H]1c2c(nn(-c3ccc(F)c(C4CC4)c3)c2-n2ccn(-c3ccc4c(c3)N(C)C(=O)C43CC3)c2=O)CCN1C(=O)c1cc2cc(C3CCOC(C)(C)C3)ccc2n1C1(c2noc(=O)[nH]2)CC1 (single isomer, unassigned) [Compound 20] | 
< 0.5 |  |  | Cc1cc(-n2nc3c(c2-n2ccn(-c4ccc5c(c4)C4(CCC4)C(=O)N5C)c2=O)[C@H](C)N(C(=O)c2cc4cc(C5CCOC(C)(C)C5)ccc4n2[C@@]2(c4nc(=O)o[nH]4)C[C@@H]2C)CC3)cc(C)c1F (single isomer, unassigned) [Compound 21] | 
< 0.5 |  |  | Cc1cc(-n2nc3c(c2-n2ccn(-c4ccc5c(c4)C4(CC4)C(=O)N5C)c2=O)C(C)N(C(=O)c2cc4cc(C5CCOC(C)(C)C5)ccn4c2C2(c4noc(=O)[nH]4)CC2C)CC3)cc(C)c1F (single isomer, unassigned) [Compound 22-A] | 
< 0.5 |  |  | Cc1cc(-n2nc3c(c2-n2ccn(-c4ccc5c(c4)C4(CC4)C(=O)N5C)c2=O)[C@H](C)N(C(=O)c2cc4cc([C@H]5CCOC(C)(C)C5)ccc4n2[C@@]2(c4noc(=O)[nH]4)C[C@@H]2C)CC3)cc(C)c1F [Compound 1-A] | 
< 0.5 | 88.76 | 88.89 | [2H]C([2H])([2H])N1C(=O)C2(CC2)c2cc(-n3ccn(-c4c5c(nn4-c4cc(C)c(F)c(C)c4)CCN(C(=O)c4cc6cc([C@H]7CCOC(C)(C)C7)ccc6n4[C@@]4(c6noc(=O)[nH]6)C[C@@H]4C)[C@H]5C)c3=O)ccc21 [Compound 2] | bioavailability ([4]; po): 43.9%; MRT last ([4]; po, ig, dose 3 mg/kg): 7.73 h; half-life ([4]; po, ig, dose 3 mg/kg): 3.53 h; MRT last ([4]; iv, dose 0.5 mg/kg): 5.13 h; half-life ([4]; iv, dose 0.5 mg/kg): 4.1 h; AUC(0-inf) ([4]; po, ig, dose 3 mg/kg): 4880 ng·h/mL; AUC(0-t) ([4]; po, ig, dose 3 mg/kg): 4790 ng·h/mL; AUC(0-inf) ([4]; iv, dose 0.5 mg/kg): 1850 ng·h/mL; AUC(0-t) ([4]; iv, dose 0.5 mg/kg): 1820 ng·h/mL
< 0.5 | 80.83 | 90.13 | Cc1cc(-n2nc3c(c2-n2ccn(-c4ccc5c(c4)C4(CC4)C(=O)N5C4CC4)c2=O)[C@H](C)N(C(=O)c2cc4cc([C@H]5CCOC(C)(C)C5)ccc4n2[C@@]2(c4noc(=O)[nH]4)C[C@@H]2C)CC3)cc(C)c1F [Compound 3] | bioavailability ([4]; po): 33.7%; MRT last ([4]; po, ig, dose 3 mg/kg): 8.42 h; half-life ([4]; po, ig, dose 3 mg/kg): 4.15 h; MRT last ([4]; iv, dose 0.5 mg/kg): 6.13 h; half-life ([4]; iv, dose 0.5 mg/kg): 5.73 h; AUC(0-inf) ([4]; po, ig, dose 3 mg/kg): 4960 ng·h/mL; AUC(0-t) ([4]; po, ig, dose 3 mg/kg): 4800 ng·h/mL; AUC(0-inf) ([4]; iv, dose 0.5 mg/kg): 2450 ng·h/mL; AUC(0-t) ([4]; iv, dose 0.5 mg/kg): 2360 ng·h/mL
< 0.5 | 91.85 | 95.46 | Cc1cc(-n2nc3c(c2-n2ccn(-c4ccc5c(c4)C4(CC4)C(=O)N5C)c2=O)[C@H](C)N(C(=O)c2cc4cc([C@H]5CCOC(C)(C)C5)ccc4n2C2(c4noc(=O)[nH]4)CC2)CC3)cc(C)c1F [Compound 4] | 
< 0.5 |  |  | Cc1cc(-n2nc3c(c2-n2ccn(-c4ccc5nc6n(c5c4)CCN(C)C6)c2=O)[C@H](C)N(C(=O)c2cc4cc([C@H]5CCOC(C)(C)C5)ccc4n2[C@@]2(c4noc(=O)[nH]4)C[C@@H]2C)CC3)cc(C)c1F [Compound 7] | 
< 0.5 |  |  | Cc1cc(-n2nc3c(c2-n2ccn(-c4ccc5nc6n(c5c4)CCC6)c2=O)[C@H](C)N(C(=O)c2cc4cc([C@H]5CCOC(C)(C)C5)ccc4n2[C@@]2(c4noc(=O)[nH]4)C[C@@H]2C)CC3)cc(C)c1F [Compound 8] | 
< 0.5 |  |  | Cc1cc(-n2nc3c(c2-n2ccn(-c4ccc5c(c4)C(=O)C4(CC4)C5)c2=O)[C@H](C)N(C(=O)c2cc4cc([C@H]5CCOC(C)(C)C5)ccc4n2[C@@]2(c4noc(=O)[nH]4)C[C@@H]2C)CC3)cc(C)c1F [Compound 9-A] | 
